Experimental data taken from patent US9937227B2, “Humanin, analogs and cancer treatment methods and uses thereof” (LOS ANGELES BIOMEDICAL RESEARCH INSTITUTE AT HARBOR-UCLA …, priority 2014, dated 2018).
Several values for one entry are separate records, joined by “and”; a condition that tells them apart may be missing. Equal values may be shown once.

Columns and labels:
sperm output = assay: Cauda epididymal sperm count after multiple doses of CP; assay type: in vivo, mouse; details: 28 days; HNG 10 mg/kg BW daily SC; CP 150 mg/kg BW IP, 6 doses at 5-day intervals
Method: The objective of this study was to investigate whether HNG has protective effect on sperm output after multiple doses of CP in mice. Thirty adult male mice (C57BL/6J) were randomized into 4 groups: 1) 5 as control; 2) 5 received daily subcutaneously injection of HNG (10 mg/kg BW); 3) 10 were given 6 doses of CP (150 mg/kg BW) intraperitoneally at 5-day intervals; 4) 10 received both HNG and CP. All mice were killed at 28 days. Plasma HNG and IGF-1 levels were measured by ELISAs. The cauda epididymal sperm count was performed using a hemocytometer.

IGF-1 = assay: Plasma IGF-1 in mice bearing metastatic lung melanomas; assay type: in vivo, mouse; details: 14 days; HNG 5 mg/kg/day IP, CP 200 mg/kg IP single injection
Text: These preliminary data support a concept that HN is a caloric restriction mimetic, and its cytotoxic effects in cancer may be mediated by lowering IGF-1 without increasing GH and insulin.

[1] = test system: Ser727-phosphorylated STAT3; assay: STAT3 phosphorylation in testis by western blot; assay type: in vivo, mouse; details: testis homogenates; single agent
Method: (§1) For the HN analog experiments, male mice were divided into seven groups (n=4-5 per group) and received one of the following treatments and sacrificed after 24 hours: 1) vehicle (control); 2) a single intra-peritoneal (IP) injection of HN peptide [HN, 40 mg/Kg body weight (BW)]; 3) a single IP injection of CP (CP, 200 mg/Kg BW); 4) IP injection of CP and HN (CP+HN); 5) a single IP injection of each HN analog (HNG 5 mg/Kg BW, HNG-F6A 5 mg/Kg BW, HN-S7A 40 mg/Kg BW, HN-C8P 40 mg/Kg BW, or HN-L12A 40 mg/Kg BW); 6) IP injection of CP and each HN analog (CP+HNG, HNG-F6A, HN-S7A, HN-C8P, or HN-L12A); and 7) IP injection of CP+HN+HN analog (HN-S7A, HN-C8P, or HN-L12A; to assess whether the analogs has enhancing or inhibitory effect on HN).
(§2) To facilitate testicular fixation by using a whole-body perfusion technique, all animals were injected with heparin (130 IU/100 g BW, IP) 15 min before a lethal injection of sodium pentobarbital (200 mg/kg BW, IP) (Lue Y H, et al., 1999). One testis was removed and weighed after perfusion with saline. Portions of testicular parenchyma were snap frozen in liquid nitrogen, and stored at −80 C for Western blotting. The other testis was fixed by vascular perfusion with Bouin's solution, and processed with routine paraffin embedding for in situ detection of apoptosis.
Western blotting was performed as described previously (Jia Y, et al., 2009). […]

male germ cells = assay type: in vivo; details: middle stages (VII-VIII); same doses; 24 hours; monohydrate
Method: as §1, §2
Detection of apoptotic cells was performed in Bouin's'-fixed, paraffin-embedded testicular sections by the terminal deoxynucleotidyl transferase (TdT)-mediated deoxy-UTP nick end labeling (TUNEL) technique (Sinha Hikim A P, et al., 1997) using an ApopTag-peroxidase kit (Chemicon International, Inc., Temecula, Calif.). Enumeration of the Sertoli cell nuclei with distinct nucleoli and apoptotic germ cell population was quantified at stages I-IV (early stages), stages VII-VIII (middle stages) and stages XI-XII (late stages) of the seminiferous epithelial cycle using an Olympus BH-2 microscope (New Hyde Park, N.Y.). Stages were identified according to the criteria proposed by Russell et al for paraffin sections (Russell L, 1977). The rate of germ cell apoptosis (apoptotic index, AI) was expressed as the number of apoptotic germ cells per Sertoli cells (Sinha Hikim A P, et al., 1997).

O=P1(N(CCCl)CCCl)NCCCO1 (stereo not shown) [CP, cyclophosphamide monohydrate]
epididymal sperm counts (sperm output): 0.5±0.1 ×10^6/mg
plasma IGF-1 levels (IGF-1): modestly suppressed
STAT3 phosphorylation compared with control [1]: suppressed
apoptotic index (AI, apoptotic germ cells per Sertoli cell) (male germ cells): 0.25±0.03 and 0.33±0.03
